Data: ChEMBL document CHEMBL3856212, “Synthesis, anti-proliferative and genotoxicity studies of 6-chloro-5-(2-substituted-ethyl)-1,3-dihydro-2H-indol-2-ones and 6-chloro-5-(2-chloroethyl)-3-(alkyl/ary-2-ylidene)indolin-2-ones” (Eur J Med Chem, 2016)

How the values were obtained:
Type in all cases: functional
[1] = Cytotoxicity against human SF295 cells assessed as growth inhibition after 48 hrs by SRB assay; settings: SF-295, 48 h; for CC50: read-out: LD50 (the source's name)
[2] = Cytotoxicity against human SK-MEL-28 cells assessed as growth inhibition after 48 hrs by SRB assay; settings: SK-MEL-28, 48 h; for CC50: read-out: LD50 (the source's name)
[3] = Cytotoxicity against human SKOV3 cells assessed as growth inhibition after 48 hrs by SRB assay; settings: SK-OV-3, 48 h; for CC50: read-out: LD50 (the source's name)
[4] = Cytotoxicity against human SW1222 cells assessed as assessed as growth inhibition at 10^-5 M after 48 hrs by SRB assay relative to control; settings: SW1222, 48 h, read-out: GI
[5] = Cytotoxicity against human COLO205 cells assessed as assessed as growth inhibition at 10^-5 M after 48 hrs by SRB assay relative to control; settings: COLO 205, 48 h, read-out: GI
[6] = Cytotoxicity against human HCT116 cells assessed as assessed as growth inhibition at 10^-5 M after 48 hrs by SRB assay relative to control; settings: HCT-116, 48 h, read-out: GI
[7] = Cytotoxicity against human KM12 cells assessed as assessed as growth inhibition at 10^-5 M after 48 hrs by SRB assay relative to control; settings: KM12, 48 h, read-out: GI
[8] = Cytotoxicity against human MALME-3M cells assessed as assessed as growth inhibition at 10^-5 M after 48 hrs by SRB assay relative to control; settings: read-out: GI
[9] = Cytotoxicity against human SK-MEL-2 cells assessed as assessed as growth inhibition at 10^-5 M after 48 hrs by SRB assay relative to control; settings: SK-MEL-2, 48 h, read-out: GI
[10] = Cytotoxicity against human OVCAR4 cells assessed as assessed as growth inhibition at 10^-5 M after 48 hrs by SRB assay relative to control; settings: OVCAR-4, 48 h, read-out: GI
[11] = Cytotoxicity against human HOP92 cells assessed as growth inhibition after 48 hrs by SRB assay; settings: HOP-92, 48 h; for CC50: read-out: LD50 (the source's name)
[12] = Cytotoxicity against human MALME-3M cells assessed as growth inhibition after 48 hrs by SRB assay; settings: for CC50: read-out: LD50 (the source's name)
[13] = Cytotoxicity against human IGROV1 cells assessed as growth inhibition after 48 hrs by SRB assay; settings: IGROV-1, 48 h; for CC50: read-out: LD50 (the source's name)
[14] = Cytotoxicity against human TK10 cells assessed as growth inhibition after 48 hrs by SRB assay; settings: TK-10, 48 h; for CC50: read-out: LD50 (the source's name)
[15] = Cytotoxicity against human UO31 cells assessed as growth inhibition after 48 hrs by SRB assay; settings: UO-31, 48 h; for CC50: read-out: LD50 (the source's name)
[16] = Cytotoxicity against human DU145 cells assessed as assessed as growth inhibition at 10^-5 M after 48 hrs by SRB assay relative to control; settings: DU-145, 48 h, read-out: GI

Structure (SMILES) | GI50 [1] | TGI [1] | CC50 [1] | GI50 [2] | TGI [2] | CC50 [2] | GI50 [3] | TGI [3] | CC50 [3] | inhibition of growth at 10 µM [4] | inhibition of growth at 10 µM [5] | inhibition of growth at 10 µM [6] | inhibition of growth at 10 µM [7] | inhibition of growth at 10 µM [8] | inhibition of growth at 10 µM [9] | inhibition of growth at 10 µM [10] | GI50 [11] | TGI [11] | CC50 [11] | GI50 [12] | also measured
O=C1Cc2cc(CCN3CCNCC3)c(Cl)cc2N1 | 4200 nM | > 1000 nM | > 1000 nM | 3700 nM | > 1000 nM | > 1000 nM | 1000 nM | > 1000 nM | > 1000 nM | 59.2% | 40.1% | 34.8% | 70.4% | 19.6% | 53.9% | 19% |  |  |  |  | 
O=C1Cc2cc(CCn3ccnc3)c(Cl)cc2N1 | 7870 nM | > 1000 nM | > 1000 nM | 2970 nM | > 1000 nM | > 1000 nM | 1810 nM | > 1000 nM | > 1000 nM |  | 29.9% | 28% | 67.8% | 2.24% | 19.3% | 2.81% | 3540 nM | 9150 nM | > 1000 nM | 7950 nM | TGI [12]: > 1000 nM; CC50 [12]: > 1000 nM; GI50 [13]: 1000 nM; TGI [13]: > 1000 nM; CC50 [13]: > 1000 nM; GI50 [14]: 1000 nM; TGI [14]: > 1000 nM; CC50 [14]: > 1000 nM; GI50 [15]: 5850 nM; TGI [15]: > 1000 nM; CC50 [15]: > 1000 nM; inhibition of growth at 10 µM [16]: 31%
O=C1Cc2cc(CCn3cncn3)c(Cl)cc2N1 | 3710 nM | > 1000 nM | > 1000 nM | 2100 nM | > 1000 nM | > 1000 nM | 3650 nM | > 1000 nM | > 1000 nM | 45.8% |  | 21% | 64% | 6.24% | 28.7% | 13.2% | 3020 nM | > 1000 nM | > 1000 nM | 1000 nM | TGI [12]: > 1000 nM; CC50 [12]: > 1000 nM; GI50 [13]: 1000 nM; TGI [13]: > 1000 nM; CC50 [13]: > 1000 nM; GI50 [14]: 1000 nM; TGI [14]: > 1000 nM; CC50 [14]: > 1000 nM; GI50 [15]: 1000 nM; TGI [15]: > 1000 nM; CC50 [15]: > 1000 nM; inhibition of growth at 10 µM [16]: 3.54%
